pIC50: −log10 of the molar value. In brackets after ≈: the same amount, converted by molar mass.
Legend:
[1] = tested on: Salmonella typhimurium; assay: Genotoxicity in Salmonella typhimurium TA100 at 1600 ug/plate by Ames test in absence of S9 fraction; type: toxicity, organism-based; details: salmonella enterica subsp. enterica serovar typhimurium
[2] = tested on: Salmonella typhimurium; assay: Genotoxicity in Salmonella typhimurium TA98 at 500 ug/plate by Ames test in absence of S9 fraction; type: toxicity, organism-based; details: salmonella enterica subsp. enterica serovar typhimurium
[3] = tested on: Mycobacterium tuberculosis; assay: Antimycobacterial activity against Mycobacterium tuberculosis H37Rv ATCC 27294 after 5 days by microdilution method; type: functional; details: H37Rv ATCC 27294, 120 h
[4] = tested on: Salmonella typhimurium; assay: Genotoxicity in Salmonella typhimurium TA100 at 160 ug/plate by Ames test in presence of S9 fraction; type: toxicity, organism-based; details: salmonella enterica subsp. enterica serovar typhimurium
[5] = tested on: Salmonella typhimurium; assay: Genotoxicity in Salmonella typhimurium TA98 at 500 ug/plate by Ames test in presence of S9 fraction; type: toxicity, organism-based; details: salmonella enterica subsp. enterica serovar typhimurium
[6] = Inhibition of Mycobacterium tuberculosis DprE1 using farnesyl-phosphoryl-beta-D-ribofuranose as substrate preincubated for 30 mins before substrate addition by peroxidase coupled assay
[7] = tested on: Salmonella typhimurium; assay: Genotoxicity in Salmonella typhimurium TA100 at 16 ug/plate by Ames test in presence of S9 fraction; type: toxicity, organism-based; details: salmonella enterica subsp. enterica serovar typhimurium
[8] = tested on: Salmonella typhimurium; assay: Genotoxicity in Salmonella typhimurium TA100 at 50 ug/plate by Ames test in absence of S9 fraction; type: toxicity, organism-based; details: salmonella enterica subsp. enterica serovar typhimurium
[9] = tested on: Mycobacterium tuberculosis; assay: Antimycobacterial activity against Mycobacterium tuberculosis H37Rv ATCC 27294 after 2 to 3 weeks by turbidity assay; type: functional
[10] = tested on: Salmonella typhimurium; assay: Genotoxicity in Salmonella typhimurium TA100 at 5000 ug/plate by Ames test in presence of S9 fraction; type: toxicity, organism-based; details: salmonella enterica subsp. enterica serovar typhimurium
[11] = tested on: Salmonella typhimurium; assay: Genotoxicity in Salmonella typhimurium TA98 at 5000 ug/plate by Ames test in presence of S9 fraction; type: toxicity, organism-based; details: salmonella enterica subsp. enterica serovar typhimurium
[12] = tested on: Salmonella typhimurium; assay: Genotoxicity in Salmonella typhimurium TA100 at 5000 ug/plate by Ames test in absence of S9 fraction; type: toxicity, organism-based; details: salmonella enterica subsp. enterica serovar typhimurium
[13] = tested on: Salmonella typhimurium; assay: Genotoxicity in Salmonella typhimurium TA98 at 5000 ug/plate by Ames test in absence of S9 fraction; type: toxicity, organism-based; details: salmonella enterica subsp. enterica serovar typhimurium
[14] = Intrinsic clearance in mouse liver microsomes; type: ADME; details: read-out: CLH
[15] = tested on: Salmonella typhimurium; assay: Genotoxicity in Salmonella typhimurium TA98 at 160 ug/plate by Ames test in absence of S9 fraction; type: toxicity, organism-based; details: salmonella enterica subsp. enterica serovar typhimurium
[16] = target: Cytochrome P450 2C9 (Homo sapiens, UniProt P11712); assay: Inhibition of human recombinant CYP2C9 by fluorescence assay; type: ADME
Sequence of Cytochrome P450 2C9 (P11712 whole entry): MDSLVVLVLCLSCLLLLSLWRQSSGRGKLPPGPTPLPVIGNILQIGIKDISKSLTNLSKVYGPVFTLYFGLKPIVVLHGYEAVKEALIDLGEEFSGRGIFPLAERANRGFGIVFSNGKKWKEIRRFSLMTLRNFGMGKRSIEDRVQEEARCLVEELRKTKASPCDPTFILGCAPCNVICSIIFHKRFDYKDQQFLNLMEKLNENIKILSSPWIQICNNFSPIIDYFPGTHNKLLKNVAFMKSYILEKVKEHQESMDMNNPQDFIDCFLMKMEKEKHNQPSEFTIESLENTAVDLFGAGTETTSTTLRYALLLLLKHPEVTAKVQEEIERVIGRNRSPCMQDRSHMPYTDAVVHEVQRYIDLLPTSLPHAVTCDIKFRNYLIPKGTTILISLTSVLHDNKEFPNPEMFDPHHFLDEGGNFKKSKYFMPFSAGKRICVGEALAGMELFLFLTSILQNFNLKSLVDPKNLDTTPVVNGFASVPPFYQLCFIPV

[17] = target: T1, Cytochrome P450 1A2 (Homo sapiens, UniProt P05177); assay: Inhibition of human recombinant CYP1A2 by fluorescence assay; type: ADME
T1 sequence (P05177 whole entry): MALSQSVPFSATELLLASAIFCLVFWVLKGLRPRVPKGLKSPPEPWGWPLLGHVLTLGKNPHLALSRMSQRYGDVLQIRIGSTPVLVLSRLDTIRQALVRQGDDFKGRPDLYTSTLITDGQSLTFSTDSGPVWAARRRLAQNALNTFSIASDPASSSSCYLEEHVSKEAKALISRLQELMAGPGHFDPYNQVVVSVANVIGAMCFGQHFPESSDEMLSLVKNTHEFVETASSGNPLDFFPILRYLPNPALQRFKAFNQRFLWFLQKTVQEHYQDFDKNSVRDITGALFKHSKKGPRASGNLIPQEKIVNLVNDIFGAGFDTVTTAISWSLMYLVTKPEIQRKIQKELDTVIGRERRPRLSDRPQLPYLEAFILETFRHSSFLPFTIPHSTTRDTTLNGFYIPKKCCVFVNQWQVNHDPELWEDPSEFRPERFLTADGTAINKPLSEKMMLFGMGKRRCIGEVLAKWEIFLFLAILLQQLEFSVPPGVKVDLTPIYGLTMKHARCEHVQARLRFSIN

[18] = Aqueous solubility of the compound; type: physicochemical; details: buffer
[19] = target: Cytochrome P450 2C19 (Homo sapiens, UniProt P33261); assay: Inhibition of human recombinant CYP2C19 by fluorescence assay; type: ADME
Sequence of Cytochrome P450 2C19 (P33261 whole entry): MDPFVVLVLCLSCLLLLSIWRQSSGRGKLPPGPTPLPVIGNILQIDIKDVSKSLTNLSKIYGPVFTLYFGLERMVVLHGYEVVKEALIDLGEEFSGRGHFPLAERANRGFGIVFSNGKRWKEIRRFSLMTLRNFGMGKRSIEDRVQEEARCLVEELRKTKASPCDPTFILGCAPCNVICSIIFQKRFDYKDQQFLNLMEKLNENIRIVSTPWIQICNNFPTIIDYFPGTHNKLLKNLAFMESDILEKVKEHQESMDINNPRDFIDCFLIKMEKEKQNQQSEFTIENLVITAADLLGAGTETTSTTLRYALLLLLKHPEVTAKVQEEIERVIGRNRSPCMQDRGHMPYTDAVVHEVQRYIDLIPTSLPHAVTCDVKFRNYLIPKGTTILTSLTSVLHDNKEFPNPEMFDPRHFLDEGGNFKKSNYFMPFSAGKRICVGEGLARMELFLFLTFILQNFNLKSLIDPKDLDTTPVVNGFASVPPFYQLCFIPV

[20] = tested on: A549; assay: Cytotoxicity against human A549 cells after 72 hrs by fluorescence assay; type: cell-based; details: A549, 72 h
[21] = tested on: Salmonella typhimurium; assay: Genotoxicity in Salmonella typhimurium TA98 at 50 ug/plate by Ames test in presence of S9 fraction; type: toxicity, organism-based; details: salmonella enterica subsp. enterica serovar typhimurium
[22] = target: Cytochrome P450 2D6 (Homo sapiens, UniProt P10635); assay: Inhibition of human recombinant CYP2D6 by fluorescence assay; type: ADME
Sequence of Cytochrome P450 2D6 (P10635 whole entry): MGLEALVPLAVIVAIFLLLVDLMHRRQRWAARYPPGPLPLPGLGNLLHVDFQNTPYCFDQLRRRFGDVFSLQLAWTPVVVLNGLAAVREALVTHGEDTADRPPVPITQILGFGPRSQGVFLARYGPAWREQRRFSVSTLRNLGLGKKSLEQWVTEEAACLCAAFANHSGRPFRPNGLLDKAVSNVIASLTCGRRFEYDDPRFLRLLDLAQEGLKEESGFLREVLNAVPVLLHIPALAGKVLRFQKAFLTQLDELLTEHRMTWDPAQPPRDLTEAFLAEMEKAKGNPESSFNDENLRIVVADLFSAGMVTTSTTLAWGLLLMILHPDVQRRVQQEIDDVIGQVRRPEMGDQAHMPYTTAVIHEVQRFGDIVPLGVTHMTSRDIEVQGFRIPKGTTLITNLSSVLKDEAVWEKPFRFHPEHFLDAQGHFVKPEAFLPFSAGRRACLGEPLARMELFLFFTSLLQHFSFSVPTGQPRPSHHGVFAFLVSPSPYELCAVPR

[23] = Fraction unbound in mouse plasma protein; type: ADME, cell-free
[24] = target: Cytochrome P450 3A4 (Homo sapiens, UniProt P08684); assay: Inhibition of human recombinant CYP3A4 by fluorescence assay; type: ADME
Sequence of Cytochrome P450 3A4 (P08684 whole entry): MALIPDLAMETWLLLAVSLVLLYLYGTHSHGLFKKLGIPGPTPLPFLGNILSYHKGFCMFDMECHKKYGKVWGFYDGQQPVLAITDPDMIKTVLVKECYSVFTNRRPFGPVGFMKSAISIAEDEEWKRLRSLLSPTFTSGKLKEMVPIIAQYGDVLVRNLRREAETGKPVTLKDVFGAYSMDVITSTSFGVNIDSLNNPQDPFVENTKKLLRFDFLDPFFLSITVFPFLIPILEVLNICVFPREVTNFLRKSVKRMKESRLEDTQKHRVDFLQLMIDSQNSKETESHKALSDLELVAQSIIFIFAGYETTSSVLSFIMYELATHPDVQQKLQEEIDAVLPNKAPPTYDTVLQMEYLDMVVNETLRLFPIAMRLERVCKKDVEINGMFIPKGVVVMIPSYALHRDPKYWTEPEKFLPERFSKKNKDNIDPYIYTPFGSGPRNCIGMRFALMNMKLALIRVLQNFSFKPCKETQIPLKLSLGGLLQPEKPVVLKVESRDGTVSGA

[25] = tested on: Mycobacterium tuberculosis; assay: Antimycobacterial activity against Mycobacterium tuberculosis H37Rv ATCC 27294 assessed as log reduction CFU after 7 days by killing kinetic assay; type: functional
[26] = tested on: Mycobacterium tuberculosis; assay: Antimycobacterial activity against Mycobacterium tuberculosis H37Rv ATCC 27294 infected in BMDM assessed as log reduction CFU after 7 days by killing kinetic assay; type: functional
[27] = tested on: Mycobacterium tuberculosis; assay: Antimycobacterial activity against Mycobacterium tuberculosis H37Rv ATCC 27294 infected in human THP1 cells assessed as log reduction CFU after 7 days by killing kinetic assay; type: functional, THP-1

Question: With `O=[N+]([O-])c1cc(C(F)(F)F)cc2nc(C3=NCCO3)sc12` as the molecule, how does the Activity [1] read?
Answer: Toxic

Question: What about the Activity [2] of the same molecule?
Answer: Toxic

Question: What about the MIC [3] of the same molecule?
Answer: 1 µg/mL (≈ 3.15 µM)

Question: And the Activity [4]?
Answer: Toxic

Question: And the Activity [5]?
Answer: Toxic

Question: With `N#Cc1cc([N+](=O)[O-])c2sc(C(=O)N3CCCCC3)nc2c1` as the molecule, how does the MIC [3] read?
Answer: 1 µg/mL (≈ 3.16 µM)

Question: What about the pIC50 [6] of the same molecule?
Answer: 5.74

Question: What does the source list for `O=C(c1nc2cc(C(F)(F)F)cc([N+](=O)[O-])c2s1)N1CCCCC1`?
Answer: Activity [2]: Toxic; MIC [3]: 0.7 µg/mL (≈ 1.95 µM); Activity [7]: Toxic; Activity [5]: Toxic; pIC50 [6]: 6.67; Activity [8]: Toxic

Question: With `Cc1c(C(F)(F)F)cc2nc(C(=O)N3CCCCC3)sc2c1[N+](=O)[O-]` as the molecule, how does the MIC [9] read?
Answer: 0.5 µg/mL (≈ 1.34 µM)

Question: What about the Activity [10] of the same molecule?
Answer: Non-toxic

Question: And the Activity [11]?
Answer: Non-toxic

Question: What about the MIC [3] of the same molecule?
Answer: 0.25 µg/mL (≈ 0.67 µM)

Question: What about the Activity [12] of the same molecule?
Answer: Non-toxic

Question: And the Activity [13]?
Answer: Non-toxic

Question: And the pIC50 [6]?
Answer: 5.66

Question: What does the source list for `O=C(c1sc2c([N+](=O)[O-])cc(C(F)(F)F)cc2[n+]1[O-])N1CCCCC1`?
Answer: microsomal CLint [14]: 102 µL/min/mg; Activity [15]: Toxic; pIC50 ([16]; read-out: IC50): 4.58; pIC50 [17]: 4.83; solubility [18]: 84.7 µM (≈ 31.8 µg/mL); pIC50 [19]: 4.75; pIC50 [20]: 4.62; Activity [21]: Toxic; MIC [3]: 0.03 µg/mL (≈ 0.0799 µM); pIC50 [22]: 5.92; fraction unbound [23]: 0.103; Activity [7]: Toxic; pIC50 [24]: 5.41; pIC50 [6]: 7.02; Activity [8]: Toxic

Question: Which results are given for `O=C(N[C@@H](CO)C(=O)N1CCCC1)c1nc2cc(C(F)(F)F)cc([N+](=O)[O-])c2s1`?
Answer: MIC [3]: 0.35 µg/mL (≈ 0.809 µM); pIC50 [6]: 6.46

Question: Which MIC [3] does the source give for `N#Cc1cc(C(F)(F)F)cc2nc(C(=O)N3CCCCC3)sc12` here?
Answer: > 32 µg/mL

Question: Which microsomal CLint [14] does the source give for `COCCN1CCN(C(=O)c2nc3cc(C(F)(F)F)cc([N+](=O)[O-])c3s2)CC1` here?
Answer: 25 µL/min/mg

Question: And the IC50 [16]?
Answer: Not Active

Question: What about the pIC50 [17] of the same molecule?
Answer: 4.75

Question: What about the Activity [2] of the same molecule?
Answer: Toxic

Question: And the solubility [18]?
Answer: 331 µM (≈ 138 µg/mL)

Question: What about the pIC50 [19] of the same molecule?
Answer: 4.25

Question: What about the pIC50 [20] of the same molecule?
Answer: 4.05

Question: What about the MIC [3] of the same molecule?
Answer: 0.21 µg/mL (≈ 0.502 µM)

Question: What about the pIC50 [22] of the same molecule?
Answer: 5.28

Question: And the fraction unbound [23]?
Answer: 0.061

Question: What about the Activity [7] of the same molecule?
Answer: Toxic

Question: What about the Activity [5] of the same molecule?
Answer: Toxic

Question: What about the pIC50 [24] of the same molecule?
Answer: 4.71

Question: And the pIC50 [6]?
Answer: 6.61

Question: What about the Activity [8] of the same molecule?
Answer: Toxic

Question: Which MIC [9] does the source give for `O=C(NCc1ccccn1)c1nc2cc(C(F)(F)F)cc([N+](=O)[O-])c2s1` here?
Answer: 0.12 µg/mL (≈ 0.314 µM)

Question: And the Activity [25]?
Answer: 2.5 log10CFU/ml

Question: What about the MIC [3] of the same molecule?
Answer: 0.6 µg/mL (≈ 1.57 µM)

Question: What about the Activity [26] of the same molecule?
Answer: 1 log10CFU/ml

Question: What about the pIC50 [6] of the same molecule?
Answer: 6.34

Question: What about the Activity [27] of the same molecule?
Answer: 1 log10CFU/ml

Question: For `O=C(O)c1cc(C(F)(F)F)cc2nc(C(=O)N3CCCCC3)sc12`, which MIC [3] is on record?
Answer: > 32 µg/mL

Question: What about the pIC50 [6] of the same molecule?
Answer: < 4.00

Question: Which MIC [3] does the source give for `Cc1c(C(F)(F)F)cc2nc(C(=O)N[C@@H](CO)C(=O)N3CCCC3)sc2c1[N+](=O)[O-]` here?
Answer: 1 µg/mL (≈ 2.24 µM)

Question: And the pIC50 [6]?
Answer: 5.92

Question: Which MIC [3] does the source give for `C[C@H](NC(=O)c1sc2c([N+](=O)[O-])cc(C(F)(F)F)cc2[n+]1[O-])C(=O)C1CCCC1` here?
Answer: 0.02 µg/mL (≈ 0.0464 µM)

Question: What about the Activity [26] of the same molecule?
Answer: 1 log10CFU/ml

Question: What about the pIC50 [6] of the same molecule?
Answer: 7.22

Question: What about the Activity [27] of the same molecule?
Answer: 1 log10CFU/ml

Question: Which results are given for `O=[N+]([O-])c1cc(C(F)(F)F)cc2nc(CN3CCOCC3)sc12`?
Answer: MIC [3]: > 32 µg/mL; pIC50 [6]: 5.28

Question: Which results are given for `Cc1c(C(F)(F)F)cc2nc(C(=O)N[C@@H](CCO)C(=O)N3CCCCC3)sc2c1[N+](=O)[O-]`?
Answer: MIC [3]: 0.7 µg/mL (≈ 1.48 µM); Activity [26]: 1 log10CFU/ml; pIC50 [6]: 5.92; Activity [27]: 1 log10CFU/ml
